According to patent US20030226169A1, “DNA sequences encoding antifungal proteins” (priority 1995, published 2003):

Assays:
[1] = system: Alternaria brassicicola (MUCL 20297); assay: Antifungal growth inhibition microplate assay (photospectrometry); type: cell-based; settings: Rs-AFP2 15-mer MPS peptides; one test
Summary of the method: (§1)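 Spores (2×10^4/ml) in half-strength potato dextrose broth exposed to test solution, incubated in the dark at room temperature for about 72 h (96 h for V. dahliae). Growth by OD595 minus 30-min reading; IC50 is 50% and MIC 100% growth inhibition.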

[2] = system: Botrytis cinerea (MUCL 30158); assay: as above; type: cell-based; settings: Rs-AFP2 15-mer MPS peptides; one test
Summary of the method: as §1

[3] = system: Fusarium culmorum (IMI 180420); assay: as above; type: cell-based
Summary of the method: as §1

[4] = system: Verticillium dahliae (MUCL 19210); assay: as above; type: cell-based; settings: Rs-AFP2 15-mer MPS peptides; one test; 96 hours
Summary of the method: as §1

[5] = system: Ascophyta pisi (MUCL 30164); type: cell-based; settings: Rs-AFP2 15-mer MPS peptides; one test
Experimental: The following fungal strains were used: Alternaria brassicicola (MUCL 20297), Ascophyta pisi (MUCL 30164), Botrytis cinerea (MUCL 30158), Fusarium culmorum (IMI 180420) and Verticillium dahliae (MUCL 19210).
Fungi were grown on six cereal agar plates at room temperature and under white fluorescent light except for F culmorum and V dahliae which were grown in the dark. The duration of the spore harvest varied between 10 and 25 days depending on the strain. Spores were collected as follows. Five to ten ml of sterile milli-Q water was poured into each dish and the surface of the agar was rubbed with a sterile spatula to obtain a suspension containing mycelium and spores. This suspension was filtered through a sterile glasswool-plugged funnel and the filtrate containing the spores was collected in a sterile polypropylene centrifuge tube. The A brassicicola spores were suspended in sterile 0.1 Tween 20 (Merk, 822184) due to their hydrophobic nature. The spore suspensions were then washed twice by centrifugation at 2,400×g for 15 minutes and resuspended in a small volume of steril milli-Q water. The spore density was determined in a counting chamber and then adjusted to 4×10^7 spores per ml. Aliquots of the spore suspension were transferred to sterile microtubes and an equal volume of sterile 50% glycerol (Merck, 4091) was added to each tube so that a final spore suspension of 2×10^7 spores per ml in 25% glycerol was obtained. After careful mixing of the stock, the spore suspension was transferred in 100 μl aliquots to sterile microtubes and stored at −80° C.
Antifungal activity was measured by photospectrometry as described by Broekaert et al, (1990, FEMS Microbiol Lett, 69:55-60). Tests were performed by adding 20 μl of test solution and 80 μl of a fungal spore suspension (2×10^4 spores/ml) per well in a sterile flat-bottom 96-well microtiterplate. The spore suspension was prepared by diluting the stock spore suspension ([…] in 25% glycerol) 1:1000 in half-strength potato dextrose broth. A positive growth control consisting of eight wells containing 20 μl of sterile milli-Q water and 80 μl of the fungal spore suspension was included in each test. The microtiterplates were incubated (with the lid on) in an aerated place at room temperature and under conditions of darkness for all test organisms.
After 30 minutes of incubation (when the spores are settled on the well bottom) the optical density was measured in a microplate reader (Bio Rad 3550-UV) at 595 nm. Incubation of the microtiterplates continued until the optical density of the control microculture was between 0.250 and 0.500, which took approximately 72 hours (96 hours for V dahliae). Percentage of growth inhibition (% GI) was estimated as 100 times the ratio of the corrected absorbance of the control microculture minus the corrected absorbance of the test microculture over the corrected absorbance of the control microculture at 595 nm. The corrected absorbance values equal the absorbance at 595 nm of the culture measured after 72 or 96 hours minus the absorbance at 595 nm measured after 30 minutes.
% GI=[(Acontrol−Atest/Acontrol]×100
where Acontrol=(A72/96h−A30min)control
The IC50 value is defined as the concentration that gives a 50% growth inhibition after 72 or 96 hours of incubation. The minimum inhibitory concentration (MIC) corresponds to the minimum concentration that gives 100% growth inhibition after 72 or 96 hours incubation.

various fungi = settings: on various fungi; cited from earlier work
yeast = settings: at concentrations as high as 500 μg/ml; cited from earlier work
[6] = Table 14: 18-, 19-, 20-mer peptides with C-terminal Phe49, duplo

In the case of “Rs-AFP2: antifungal protein 2 (plant defensin) from radish (Raphanus sativus) seeds; positive control (QKLCQRPSGTWSGVCGNNNACKNQCIRLEKARHGSCNYVFPAHKCICYFPC; listed as Raphanus sativus)”, the “MIC VALUES A BRASSICICOLA” value [1] is reported as 10 µg/mL, the “MIC VALUES B CINEREA” value [2] is reported as over 40 µg/mL and the “MIC VALUES F CULMORUM MPS” value ([3]; Rs-AFP2 15-mer MPS peptides, medium value of five tests) is reported as 5 to 10 µg/mL. The “MIC VALUES F CULMORUM Split” value ([3]; Rs-AFP2 15-mer split peptides (extra C-terminal beta-alanine), dilution 500-3.9 μg/ml, duplicate, MIC approximations) was 10 µg/mL, the MIC ([3]; Table 12: Rs-AFP2 15-mer peptides, ½ PDB) was 3 µg/mL and the MIC ([3]; Table 12: ½ PDB supplemented with 1 mM CaCl2) was 6 µg/mL. It also gave an MIC ([3]; Table 12: ½ PDB supplemented with 5 mM CaCl2) of 6 µg/mL, an MIC ([3]; Table 12: ½ PDB supplemented with 10 mM KCl) of 3 µg/mL and an MIC ([3]; Table 12: ½ PDB supplemented with 50 mM KCl) of 3 µg/mL. For the same substance, the MIC ([3]; Table 12: ½ PDB supplemented with 50 mM KCl, 1 mM CaCl2) was 6 µg/mL, the “IC50 1/2 PDB” value ([3]; Table 13: linear β2-β3 loop MPS peptides, 2 × 10^4 spores/ml, duplo) was 3.3 ± 0.0 µg/mL and the “IC50 SMF + pH5” value ([3]; Table 13: linear β2-β3 loop MPS peptides, SMF+ (1 mM Ca2+, 50 mM K+) pH5, duplo) was 5.2 ± 1.2 μg/ml. The “IC50 SMF + pH7” value ([3]; Table 13: linear β2-β3 loop MPS peptides, SMF+ (1 mM Ca2+, 50 mM K+) pH7, duplo) was 6.1 ± 1.3 μg/ml, the “IC50 SMF + pH5” value [3, 6] was 7.2 ± 0.6 μg/ml and the “IC50 SMF + pH7” value [3, 6] was 3.7 ± 0.6 μg/ml. The “IC50 ½ PDB” value ([3]; Table 14: 18-, 19-, 20-mer peptides with C-terminal Phe49, peptides single experiment) was 2.5 ± 0.8 µg/mL, the “MIC VALUES V DAHLIAE” value [4] was 10 µg/mL and the “MIC VALUES A PISI” value [5] was 20 to 40 µg/mL. For the same substance, the “activity relative to Rs-AFP1” value (various fungi) was “two- to thirty-fold more active” and the “adverse effects on yeast” value (yeast) was “does not have adverse effects”.
